± gives the standard deviation of the averaged measurements.
Experiments:
[1] = tested on: Homo sapiens (human subject panel, olfactory perception); assay: perceived odor pleasantness rating (rating 0-100); higher = more pleasant
In short: (§1)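 For each molecule, 1 mL diluted in paraffin oil was sniffed at high and low concentrations by 55 healthy human subjects aged 18–50, with the six lowest performers excluded. Presentation order was randomized over ten visits of 100 stimuli. Subjects who reported smelling a stimulus moved a computerized slider from its starting position of 50, and positions were converted to a 0–100 scale. The familiarity, intensity and pleasantness ratings are averaged across subjects.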

[2] = tested on: Homo sapiens (human subject panel, olfactory perception); assay: perceived odor intensity rating (rating 0-100); higher = stronger perceived smell
In short: as §1

[3] = tested on: Homo sapiens (human subject panel, olfactory perception); assay: perceived odor familiarity rating (rating 0-100); higher = more familiar
In short: as §1

[4] = odor dilution in paraffin oil: 1/10
[5] = odor dilution in paraffin oil: 1/1,000
[6] = odor dilution in paraffin oil: 1/100,000
[7] = odor dilution in paraffin oil: 1/10,000,000

Row | Compound | perceived odor pleasantness rating [1, 4] | perceived odor pleasantness rating [1, 5] | perceived odor intensity rating [2, 4] | perceived odor intensity rating [2, 5] | perceived odor familiarity rating [3, 4] | perceived odor familiarity rating [3, 5] | perceived odor pleasantness rating [1, 6] | perceived odor intensity rating [2, 6] | perceived odor familiarity rating [3, 6] | perceived odor pleasantness rating [1, 7] | perceived odor intensity rating [2, 7] | perceived odor familiarity rating [3, 7]
1 | N[C@@H](CCC(=O)O)C(=O)O [L-Glutamic acid] | 37.1 ± 23 | 47.5 ± 26 | 52.7 ± 31 | 29.8 ± 27 | 34.7 ± 30 | 30.3 ± 31 | – | – | – | – | – | –
2 | NC(=O)CC[C@H](N)C(=O)O [L-Glutamine] | – | 51.7 ± 21 | – | 29.1 ± 28 | – | 32.6 ± 26 | 49.6 ± 27 | 19 ± 27 | 35.8 ± 30 | – | – | –
3 | N[C@@H](Cc1c[nH]cn1)C(=O)O [L-Histidine] | 34.6 ± 26 | 44.3 ± 26 | 53.2 ± 34 | 19.9 ± 24 | 44.2 ± 29 | 28.5 ± 28 | – | – | – | – | – | –
4 | CC(C)C[C@H](N)C(=O)O [L-Leucine] | 22.9 ± 26 | 46.4 ± 27 | 70.9 ± 27 | 46.9 ± 29 | 45.5 ± 31 | 42.9 ± 31 | – | – | – | – | – | –
5 | NCCCC[C@H](N)C(=O)O [L-Lysine] | 18.5 ± 24 | 27.4 ± 22 | 81.7 ± 22 | 59.1 ± 30 | 45.4 ± 34 | 48.9 ± 31 | – | – | – | – | – | –
6 | CC(=O)OC1CC(C)CCC1C(C)C [L-Menthyl acetate (replicate)] | 61.6 ± 21 | 58.9 ± 18 | 59.6 ± 29 | 34.3 ± 28 | 56.9 ± 30 | 39.2 ± 30 | – | – | – | – | – | –
7 | CC(=O)OC1CC(C)CCC1C(C)C [L-Menthyl acetate] | 61.5 ± 25 | 53.4 ± 23 | 63.7 ± 26 | 15.4 ± 24 | 57.8 ± 31 | 45.6 ± 25 | – | – | – | – | – | –
8 | CSCC[C@H](N)C(=O)O [L-Methionine] | 18.4 ± 21 | 31.5 ± 25 | 78.9 ± 23 | 48.3 ± 34 | 45.7 ± 36 | 41.6 ± 30 | – | – | – | – | – | –
9 | N[C@@H](Cc1ccccc1)C(=O)O [L-Phenylalanine] | 39.9 ± 28 | 44.3 ± 29 | 34.4 ± 33 | 30.1 ± 30 | 39.1 ± 28 | 33.7 ± 31 | – | – | – | – | – | –
10 | O=C(O)[C@@H]1CCCN1 [L-Proline] | 27.9 ± 28 | 22.8 ± 24 | 81.4 ± 20 | 60.2 ± 31 | 45.3 ± 30 | 45.8 ± 35 | – | – | – | – | – | –
11 | N[C@@H](Cc1ccc(O)cc1)C(=O)O [L-Tyrosine] | – | 44 ± 23 | – | 30.7 ± 28 | – | 37.4 ± 27 | 44.1 ± 30 | 25.3 ± 33 | 26.6 ± 26 | – | – | –
12 | CC(C)[C@H](N)C(=O)O [L-Valine] | 40.9 ± 25 | 50.5 ± 24 | 42.1 ± 29 | 33.1 ± 33 | 39.1 ± 31 | 41.5 ± 34 | – | – | – | – | – | –
13 | CCCCCCCCCCCC(=O)O [Lauric acid (replicate)] | 28.8 ± 22 | 35.4 ± 22 | 72.2 ± 25 | 36 ± 32 | 50.6 ± 32 | 34.1 ± 27 | – | – | – | – | – | –
14 | CCCCCCCCCCCC(=O)O [Lauric acid] | 28.7 ± 20 | 45.8 ± 25 | 71.6 ± 27 | 25.3 ± 24 | 49.1 ± 34 | 37.4 ± 33 | – | – | – | – | – | –
15 | CCCCCCCCCCCCOC(C)=O [Lauryl acetate] | – | 43.5 ± 24 | – | 33 ± 30 | – | 33.3 ± 27 | 49.5 ± 26 | 23 ± 27 | 36.6 ± 27 | – | – | –
16 | CCCCCCCCCCCCO [Lauryl alcohol] | 35.8 ± 25 | 43 ± 26 | 64.6 ± 28 | 24.8 ± 31 | 50.1 ± 29 | 32 ± 30 | – | – | – | – | – | –
17 | C=CC(C)(O)CCC=C(C)C (configuration not stated) [Linalool] | – | 74.6 ± 19 | – | 62.1 ± 26 | – | 60.6 ± 32 | 66 ± 23 | 32.6 ± 25 | 39.9 ± 30 | – | – | –
18 | C=CC(C)(CCC=C(C)C)OC(C)=O (configuration not stated) [Linalyl acetate] | – | 56.9 ± 24 | – | 29.8 ± 30 | – | 39.3 ± 31 | 44.5 ± 21 | 31.5 ± 30 | 38.1 ± 31 | – | – | –
19 | CCCCC/C=C\C/C=C\CCCCCCCC(=O)O [Linoleic acid (replicate)] | 20.4 ± 24 | 31.7 ± 20 | 91.6 ± 11 | 66.6 ± 26 | 46.6 ± 35 | 53.2 ± 30 | – | – | – | – | – | –
20 | CCCCC/C=C\C/C=C\CCCCCCCC(=O)O [Linoleic acid] | 13.9 ± 15 | 31.2 ± 21 | 90.8 ± 13 | 64.8 ± 23 | 48.7 ± 34 | 41.2 ± 27 | – | – | – | – | – | –
21 | CC(C)CC(=O)O[C@@H]1C[C@H](C)CC[C@H]1C(C)C [Menthyl isovalerate] | – | 56.9 ± 25 | – | 33.9 ± 28 | – | 39.5 ± 27 | 49.4 ± 24 | 18.6 ± 24 | 35 ± 33 | – | – | –
22 | COC(=O)c1ccccc1OC [Methyl 2-methoxybenzoate] | – | 48.1 ± 26 | – | 47.5 ± 31 | – | 40.8 ± 31 | 45.9 ± 25 | 20.6 ± 24 | 37.5 ± 28 | – | – | –
23 | CCCCCCC#CC(=O)OC [Methyl 2-nonynoate] | – | 65 ± 27 | – | 71.1 ± 21 | – | 61.9 ± 33 | 58.5 ± 29 | 55.3 ± 30 | 55.3 ± 28 | – | – | –
24 | COC(=O)CCSC [Methyl 3-(methylthio)propionate] | – | – | – | – | – | – | 41 ± 21 | 25.6 ± 28 | 31 ± 25 | 43.2 ± 26 | 27.7 ± 30 | 40.3 ± 32
25 | COC(=O)CSC [Methyl (methylthio)acetate] | – | 17.9 ± 24 | – | 81.7 ± 16 | – | 45.8 ± 30 | 37.7 ± 27 | 37.8 ± 31 | 38.9 ± 32 | – | – | –
26 | CCC(=O)OC [Methyl Propionate] | – | 55.8 ± 27 | – | 38.7 ± 31 | – | 48.6 ± 31 | 55.7 ± 20 | 19 ± 23 | 32.6 ± 29 | – | – | –
27 | COC(=O)c1ccccc1N [Methyl anthranilate] | – | 65.3 ± 24 | – | 74.6 ± 18 | – | 61.8 ± 31 | 64 ± 25 | 58.3 ± 30 | 56.7 ± 30 | – | – | –

Source: the supplement of paper PMC4977894
